Peptide text beside a SMILES is read from it.
Columns and labels:
septicemia (CLP model) = assay: Cecal ligation and puncture (CLP) septicemia model; format: in vivo; details: CLP mice; hypodermic 1 mg/kg, 2 hours after CLP, 12 hour intervals, three times
Description: To confirm the effects of compound 1.1 (SEQ ID NO: 2) on septicemia, 10 mice in each group (7-week old, male) were anesthetized, and thereafter, the appendicies were exposed by incision of abdomen. The lower portion of ileocecal valve of the exposed appendix was tied and a single hole was made by using a 22 gage syringe needle. The treated appendix was reinserted into the abdominal cavity, and grafted using thread to obtain a septicemia-induced mice model (cecal ligation and pucture model, CLP model). Experimental methods were described in EMBO Mol Med. (2015) Mar. 12; 7(5):577-92, which is incorporated herein by reference.
Compound 1.1 (SEQ ID NO: 2) was hypodermically injected to the treated mice at dose of 1 mg/kg, after 2 hours from the CLP procedure, with 12 hour intervals, three times. As reference control, smaducin-6 was hypodermically injected at dose of 12 mg/kg as same method used for compound 1.1 (SEQ ID NO: 2). Survival rates of the mice from each group were measured (FIG. 29). Sham comparative group was not treated after incision of abdomen and anastomosis, CLP+PBS comparative group was treated with phosphate buffered saline (PBS) instead of drug compound after cecal ligation and puncture model was prepared. […]

[1] = test system: MAPK signaling pathway proteins (ERK1/2, JNK, p38); assay: Western blot of MAPK signaling pathway protein phosphorylation in LPS-treated BMDM cells; format: cell-based; details: 100 pM, 1 nM, 100 nM, LPS 2 hours
Method: BMDM cells were pretreated with DMSO, reference compound 1 (SEQ ID NO: 16), compound 1.1 (SEQ ID NO: 2) and smaducin-6 at various concentrations of 100 pM, 1 nM and 100 nM and then further treated with LPS 2 hours. Thereafter, Western blot analysis was performed.

[2] = test system: DSS-induced chronic colitis; assay: Histological analyses of colon villi and mucous membranes in DSS-induced chronic colitis model; format: in vivo, mice; details: 100 mpk
SBE (TFG-β1 signaling) = assay: SBE-Luc reporter assay in Raw 264.7 cells treated with TFG-β1; format: cell-based; details: 5 ng/mL TFG-β1 two hours
Method: Specifically, 5×NF-κB-Luc reporter plasmid, SBE-Luc reporter plasmid, and BRE-Luc reporter plasmid were individually transfected into Raw 264.7 macrophage cells. After 24 hours, the cells transfected with the NF-κB-Luc reporter plasmid were treated with 100 ng/mL of LPS, the cells transfected with the SBE-Luc reporter plasmid were treated with 5 ng/mL of TFG-β1, and the cells transfected with the BRE-Luc reporter plasmid were treated with 100 ng/mL of BMP6 for two hours.

[3] = test system: MAPK signaling pathway proteins (ERK1/2, JNK, p38); assay: Western blot of MAPK signaling pathway protein phosphorylation in LPS-treated RAW 246.7 cells; format: cell-based; details: 100 nM for 30 minutes
Method: RAW 246.7 macrophage cells were pretreated with compound 1.1 (SEQ ID NO: 2), compound 1.2 and reference compound 1 (SEQ ID NO: 16) at a concentration of 100 nM for 30 minutes and then further treated with LPS for 0 hour, 0.5 hour, 1 hour and 2 hours. […] Changes of the concentration upon phosphorylation of each protein were measured by immunoblotting using anti-phosphorylation antibodies.
Specifically, RAW 246.7 macrophage cells were pretreated with DMSO, compound 1.1 (SEQ ID NO: 2) (100 nM), IRAK1/4 inhibitor (25 μM), and smaducin-6 (100 nM) for 30 minutes, and then further treated with LPS (100 ng/ml) for two hours.

[4] = test system: DSS-induced chronic colitis; assay: Disease activity index in DSS-induced chronic colitis model; format: in vivo, Mice (C57BL/6); details: mice
Method: Mice (7-8 weeks, female, C57BL/6) were fed 2% DSS polymer (MW of about 50000 Da) in drinking water for 5-7 days, and colitis was induced every 2 to 15 days. Compound 1.1 (SEQ ID NO: 2) was then administered orally to the mice, which had induced chronic colitis by DSS, in an amount of 50 mg/kg, 100 mg/kg, 200 mg/kg and 400 mg/kg, respectively, from the third day after feeding DDS, daily, for 11 days. Body weights, diarrhea and hemafecia of the mice were checked daily and the disease activity indexes were measured (FIG. 10).

[5] = Plasma concentration / pharmacokinetics after intravenous and oral administration; format: in vivo, Male SD rat
Method: Compound 1.1 (SEQ ID NO: 2) was administered to a rat intravenously (I.V., 5 mg/kg) or orally (50 mg/kg), and 24 hours after administration, the concentration of compound 1.1 (SEQ ID NO: 2) in plasma was measured (FIG. 18 and FIG. 19).

[6] = test system: STZ-induced diabetic retinopathy; assay: Active oxygen in retina of STZ-induced diabetic retinopathy model; format: in vivo; details: mice; 0.2 μg into one eye, three times; vs non-treated DR sample
Method: Streptozotocin (STZ) was administered at dose of 50 mg/kg to mice daily for 5 days, and a mouse model having induced diabetic retinopathy was obtained. The experimental group of the mouse model was injected with compound 1.1 (SEQ ID NO: 2), in an amount of 0.2 μg into one eye of the mouse, from the 20th day to 24th days from the administration, three times with two days of interval. After 50 days of administration, a DR sample that was not treated with compound 1.1 (SEQ ID NO: 2) and a DR sample treated with compound 1.1 (SEQ ID NO: 2) were collected.
The collected retina tissues from each mouse group as described above were stained with 5 μM of dihydroethidium and active oxygen rates from each group were measured (FIG. 27B). […] Accordingly, compound 1.1 (SEQ ID NO: 2) of the present invention is effectively used for preventing, alleviating or treating ophthalmic indications such as diabetic retinopathy from the biological experiments using mice.

[7] = plasma, iv, Male SD rat, single dose 5 mg/kg (i.v.)

With CCCCCCCCCCCCCCCC(=O)N1CCC[C@H]1C(=O)N1CCC[C@H]1C(=O)NCC(=O)N[C@@H](Cc1ccc(O)cc1)C(=O)O [compound 1.1, (S)-3-(4-hydroxyphenyl)-2-(2-((S)-1-((S)-1-palmitoylpyrrolidine-2-carbonyl)pyrrolidine-2-carboxamido)acetamido)propanoic acid] (HELM PEPTIDE1{[CCCCCCCCCCCCCCCC(=O)[*:2]].P.P.G.Y}$$$$V2.0) the survival rate (septicemia (CLP model)) was 60%, the “phosphorylation of MAPK/ERK signaling pathway proteins (ERK1/2, JNK, p38)” value [1] was “not related to suppressing phosphorylation” and the “histological damages of large intestinal tissues” value ([2]; DSS-induced chronic colitis model) was “alleviated”. For the same molecule, the “recovery of the mucous membranes (Alcian blue)” value ([2]; in comparison to non-treated group and sulfasalazine 500 mpk) was “greater recovery of the mucous membranes”, the “activation of SBE induced by TFG-β1 treatment” value (SBE (TFG-β1 signaling)) was “not inhibited” and the “phosphorylation of the MAPK signaling pathway proteins (ERK1/2, JNK, p38)” value ([3]; LPS 0, 0.5, 1 and 2 hours) was “did not inhibit phosphorylation”. For the same molecule, the “MAPK signaling pathway / phosphorylation of ERK, JNK, p38” value ([3]; LPS 100 ng/ml two hours) was “neither suppressed MAPK signaling pathway nor inhibited phosphorylation of the proteins”, the “disease activity (disease activity index score)” value ([4]; oral 50, 100, 200, 400 mg/kg daily for 11 days) was “decreased as the dose increased” and the “dose at which the decrease in disease activity was saturated” value ([4]; oral daily for 11 days) was 200 mg/kg. The AUC(0-t) [5, 7] was 2140 ng·h/mL, the Cmax [5, 7] was 6020 ng/mL and the Tmax [5, 7] was 4.8 min. For the same molecule, the clearance [5, 7] was 45 mL/min/kg, the Vd ([5]; plasma, iv, Male SD rat, single dose 5 mg/kg (i.v.), read-out: Vss) was 5.4 ± 1 L/kg and the Tmax ([5]; plasma, po, Male SD rat, single dose 50 mg/kg (p.o.)) was 0 min. The “time within which the concentration decreased to 1/100 of the initial concentration” value ([5]; rat, intravenous 5 mg/kg) was 1 to 2 h, the “concentration detected in blood” value ([5]; rat, intravenous 5 mg/kg, within 8 hours from the administration) was “very low concentration” and the detection in blood ([5]; rat, oral 50 mg/kg, after 30 minutes from the oral administration) was “not detected”. The “active oxygen rate in retina tissues (dihydroethidium)” value [6] was “reduced active oxygen rate”.

Source: patent US11365215B2, “Method for preventing, improving, or treating inflammatory bowel disease” (Research & Business Foundation Sungkyunkwan University, priority 2015, dated 2022)
